Experimental data reported in patent US10730892B2, “Homoallylamines as formaldehyde-responsive triggers” (The Regents of the University of California, priority 2015, dated 2020).
Where two headings read alike, the source gives them in different places.

How the values were obtained:
[1] = test system: MCF7 cells; assay: Confocal microscopy of FAP-1 in LSD1 inhibitor-treated MCF7 cells (endogenous FA); assay type: cell-based, human; details: 10 μM FAP-1 60 min
Excerpt: Scale bar represents 50 μm in all images. […] Scale bar represents 50 μm in all images. […] Error bars denote SEM, n=6. *P<0.005

[2] = Fluorescence properties of compounds 3, 4, 5 and FP1 (Table 1); assay type: physicochemical
Excerpt: Such red-shifted fluorophores are desirable because of low autofluorescence, minimal phototoxicity, and negligible interference from biomolecules when employed in live cell imaging. […] In the presence of FA, a reversible condensation event yielded an iminium intermediate which can undergo a charge-promoted [3,3]-sigmatropic rearrangement-hydrolysis sequence to expel the aryl nitro group and afford a highly fluorescent indole-3-carboxaldehyde product (ΦF=0.11) (Table 1). Of note, the aldehyde is strategically positioned at C3 such that after the reaction cascade, the N1 lone pair electrons can delocalize into the π-system rather than quench fluorescence via an acceptor-excited PeT (a-PeT) pathway. In this regard, silicon rhodol 3, without the carboxaldehyde, is non-fluorescent (Table 1).

[3] = pH-Fluorescence profile of compound 4; assay type: physicochemical; details: pH 2.0 to 10.4, 25° C.
Procedure: FIG. 7 depicts the pH-Fluorescence profile of compound 4 (as denoted in FIG. 3). Fluorescence intensity was measured at 25° C. for the following pH values and indicated buffers: 50 mM Glycine (2.0, 2.4, 2.7, 3.1, 3.5), 50 mM sodium acetate (4.0, 4.4, 4.8, 5.2, 5.6), 50 mM MES (5.6, 6.0, 6.4, 6.8), 50 mM HEPES (6.8, 7.2, 7.4, 7.8, 8.2), 50 mM Tris (8.2, 8.6, 9.0, 9.5) and 50 mM glycine (9.5, 9.9, 10.4).

[4] = test system: HEK293T cells; details: FA in BSS, 37° C., 30 min
[5] = test system: NS1 cells
[6] = test system: HEK293TN cells; details: 3 hrs
Procedure: Prior to imaging, cells were allowed to recover in FA-free buffer for 30 min. […] Because FA is a powerful fixative, cell viability assays were performed to determine the cytotoxicity of FA under experimental conditions. A dye exclusion protocol was employed, utilizing trypan blue to selectively stain and distinguish dead cells from those that were viable. […] To further verify that the cell populations under investigation were indeed alive, DAPI, a cell permeable nuclear and chromosome counterstain, was employed to identify intact nuclei (FIG. 16).

[7] = Procedure: 999 μL of a 10.01 μM solution of FAP-1 in 20 mM PBS (pH 7.4) was prepared by diluting a 10 mM dimethylsulfoxide (DMSO) stock solution of FAP-1 into pre-warmed PBS (37° C.) in a 1-cm×1-cm quartz cuvette. 1 μL of 100 mM stock solution of FA (freshly prepared by diluting commercial 37 wt. % in H2O FA solution) was added (for a final concentration of 100 μM), and the mixture was mixed by vigorous pipetting for 5 s, followed by acquisition of the t=0 spectrum. Emission spectra (λex=645 nm, λem=655-750 nm) were collected at 0, 20, 45, 60, 90, and 120 min (see FIG. 24A). Temperature was maintained at 37° C. throughout the experiment by immersing the cuvette in a heated water bath between measurements.
999 μL of a 10.01 μM solution of FAP-1 in 20 mM PBS (pH 7.4) was prepared by diluting a 10 mM DMSO stock solution of FAP-1 into pre-warmed PBS (37° C.) in a 1-cm×1-cm quartz cuvette. 1 μL of a FA stock solution (either 5 mM or 1 mM, freshly prepared by diluting commercial 37 wt. % FA solution with Milli-Q water) or 1 μL of PBS was added (for a final concentration of 5 μM, 1 μM, or 0 μM FA), and the mixture was mixed by vigorous pipetting for 5 s and placed in a 37° C. water bath. Emission spectra were obtained after 120 min. Statistical analyses for multiple comparisons were performed using one-way ANOVA with the Bonferroni correction in the statistical analysis software, R.

[8] = remark: listed apart in the source
Procedure: Milli-Q water was used to prepare all aqueous solutions. All spectroscopic measurements were performed in 20 mM PBS, pH 7.4. Absorption spectra were recorded using a Varian Cary 50 spectrophotometer, and fluorescence spectra were recorded using a Photon Technology International Quanta Master 4 L-format scan spectrofluorometer equipped with an LPS-220B 75-W xenon lamp and power supply, A-1010B lamp housing with integrated igniter, switchable 814 photocounting/analog photomultiplier detection unit, and MD5020 motor driver. Samples for absorption and emission measurements were contained in 1-cm×1-cm quartz cuvettes (1.4-mL volume, Starna).
Quantum yield was determined using zinc phthalocyanine (ZnPc) as a standard according to a published method (Williams et al., Analyst. 1983, 108:1067-1071). For FAP-1 and ZnPc, the absorbance spectra were measured within an absorbance range below 0.1. The quantum yield was calculated according to the equation: ϕsample=ϕstandard (Gradsample/Gradstandard)(ηsample^2/ηstandard^2); where ϕ is the quantum yield, ϕstandard=0.34 in 1% pyridine/toluene (Bishop et al., J. Photochem. Photobiol. 1995, 90:39-44), Grad is the slope of the plot of absorbance versus integrated emission intensity, and η is the refractive index of the solvent.

[9] = test system: HEK293T cells
Procedure: FIG. 29 depicts a photostability study with FAP-1. A field of HEK293T cells loaded with 10 μM FAP-1 in BSS at 37° C. was irradiated using 50% laser power (dashed line) or 6% laser power (solid line) with a pinhole of 1 airy unit for 100 scans. Emission was normalized to the first scan for each field. Error bars represent standard deviation, n=5.

[10] = remark: listed apart in the source
Procedure: (§1) 999 μL of a 10.01 μM solution of FAP-1 (for 4-hydroxynonenal cuvette: 998.4 μL of a 10.02 μM solution of FAP-1; for glutathione cuvette: 950 μL of a 10.53 μM solution of FAP-1) in 20 mM PBS (pH 7.4) was prepared by diluting a 10 mM DMSO stock solution of FAP-1 into pre-warmed PBS (37° C.) in a 1-cm×1-cm quartz cuvette. The analyte of interest was added to the cuvette to bring the concentration of analyte to 100 μM (unless otherwise specified) and the concentration of FAP-1 to 10 μM, followed by mixing by vigorous pipetting for 5 seconds, and a t=0 spectrum was acquired. The cuvette was placed in a 37° C. water bath. Emission spectra were recorded by quickly removing the cuvette from the water bath, obtaining the spectrum, and returning the cuvette to the bath. Spectra were taken at t=0, 20, 45, 60, 90, and 120 min (see FIG. 24B).

[11] = test system: HEK293T cells; details: 10 μM FAP-1 30 min, FA 200 μM to 1 mM
Procedure: Statistical analyses for multiple comparisons were performed using one-way ANOVA with the Bonferroni correction in the statistical analysis software, R.

[12] = remark: listed apart in the source
Procedure: A modified version of the shake method was used to determine the partition coefficient or log Doct/wat value for FAP-1 (Rothbard et al., J. Am. Chem. Soc. 2004, 126:9506-9507). Briefly, 1-octanol-saturated PBS (248 μL), PBS-saturated 1-octanol (248 μL), and 1 mM solution of FAP-1 in DMSO (5 μL) were added to a 0.6-mL microcentrifuge tube. The dye was partitioned between the layers via vortexing for 30 s. The microcentrifuge tube was centrifuged on a bench-top minifuge at 4 k rpm for 4 minutes to separate the layers. A portion of the 1-octanol layer (200 μL) was transferred to a 96-well plate, and the fluorescence emission from 665-700 nm was measured (excitation at 645 nm) using a Synergy Mx multimode microplate reader (BioTek Instruments, Inc.) equipped with fluorescence module. The concentration of dye in the 1-octanol layer was determined by comparison with a standard curve constructed from six data points.

[13] = remark: listed apart in the source
Procedure: as §1
1 μL of 100 mM stock solution of methylglyoxal in Milli-Q water (freshly prepared by diluting 7.7 μL of neat methylglyoxal to 500 μL with Milli-Q water) was added to 999 μL of a 10.01 μM solution of FAP-1 in PBS.

[14] = in 1% pyridine/toluene; cited from earlier work

Compound: N[C@@H]1C[C@H]1c1ccccc1 (racemic) [TCP, tranylcypromine]
- decrease in FAP-1 fluorescence signal compared to control cells ([1]; MCF7, 20 μM inhibitor for 20 h): ca. 20%

Compound: Cc1cc2c(ccn2C)cc1C1=C2C=CC(=O)C=C2[Si](C)(C)c2c1cc1c3c2CCCN3CCC1 [Compound 3, 9-(1,6-dimethyl-1H-indol-5-yl)-14,14-dimethyl-2,3,5,6,7,14-hexahydro-1H,12H-benzo[5,6]silino[2,3-f]pyrido[3,2,1-ij]quinolin-12-one]
- ε [2]: 86000 M⁻¹ cm⁻¹
- λabs [2]: 633 nm
- λem [2]: 649 nm
- fluorescence (in words) ([2]; without the carboxaldehyde): non-fluorescent

Compound: Cc1cc2c(cc1C1=C3C=CC(=O)C=C3[Si](C)(C)c3c1cc1c4c3CCCN4CCC1)c(C=O)cn2C [Compound 4, 5-(14,14-dimethyl-12-oxo-2,3,6,7,12,14-hexahydro-1H,5H-benzo [5,6]silino [2,3-f]pyrido[3,2,1-ij]quinolin-9-yl)-1,6-dimethyl-1H-indole-3-carbaldehyde]
- pH-fluorescence profile [3]: high fluorescence intensity was maintained under physiological conditions
- Φ (quantum efficiency, ΦF) [2]: 0.13
- ε [2]: 106000 M⁻¹ cm⁻¹
- λabs [2]: 633 nm
- λem [2]: 649 nm
- Φ (quantum efficiency, ΦF) ([2]; listed as indole-3-carboxaldehyde product): 0.11

Compound: C=CCC(N)c1cn(C)c2cc(C)c(C3=C4C=CC(=O)C=C4[Si](C)(C)c4c3cc3c5c4CCCN5CCC3)cc12 (stereo not drawn) [Compound 5, 9-(3-(1-aminobut-3-en-1-yl)-1,6-dimethyl-1H-indol-5-yl)-14,14-dimethyl-2,3,5,6,7,14-hexahydro-1H,12H-benzo[5,6]silino[2,3-f]pyrido[3,2,1-ij]quinolin-12-one]
- Φ (quantum efficiency, ΦF) [2]: 0.02
- ε [2]: 100000 M⁻¹ cm⁻¹
- λabs [2]: 633 nm
- λem [2]: 649 nm

Compound: C=O [FA, Formaldehyde]
- cell viability (propidium iodide assay) [4]: no difference between FA-treated and untreated cells
- loss in viability (trypan blue) ([5]; NS1, 2.5 mM FA, 3 hrs): ca. 12%
- cell death (trypan blue) ([5]; NS1, 5 mM FA): considerable cell death
- dead cells (trypan blue) ([6]; 1 mM FA): 5%
- cells no longer viable (trypan blue) ([6]; 5 mM FA): ~35%

Compound: C=CCC1NC2(c3ccc(C(=O)O)cc31)c1ccc(N(C)C)cc1[Si](C)(C)c1cc(N(C)C)ccc12 (stereo not drawn) [FAP-1]
- turn-on response at saturation ([7]; 10 μM FAP-1, 100 μM FA, extended incubation times): ca. 45 fold
- fold fluorescence turn-on response ([7]; 10 μM FAP-1, 100 μM FA, pH 7.4, 37° C., within 1 h): ca. 8 fold
- in vitro detection limit for FA ([7]; 10 μM FAP-1, 2-hour cutoff): 5 µM
- ε650 ([8]; 20 mM PBS, pH 7.4): 190 M^1 cm^−1
- φfl (quantum yield) ([8]; 20 mM PBS, pH 7.4, ZnPc as standard): 0.36
- λem ([8]; turn-on response to FA): 662 nm
- λmax ([8]; turn-on response to FA): 645 nm
- photostability ([9]; 50% laser power): slight photobleaching
- photostability ([9]; 100 scans with 6% laser power): consistent fluorescence intensity
- selectivity for FA over competing RCS and carbonyl-containing molecules ([10]; 10 μM FAP-1, 100 μM analyte (glucose 1 mM), 37° C.): good selectivity
- change in fluorescence ([10]; 100 μM H2O2): no change in fluorescence
- change in fluorescence ([10]; 5 mM glutathione): no change in fluorescence
- fluorescence turn-on in FA-treated cells over control cells [11]: significant and dose-dependent fluorescence turn-on
- log Doct/wat ([12]; 1-octanol / PBS, mean±standard deviation, triplicate): 0.53±0.01
- solubility in aqueous solution ([12]; aqueous solution buffered to pH 7.4): good solubility
- fluorescence response ([13]; 10 μM methylglyoxal): not responsive
- fluorescence response ([13]; 100 μM methylglyoxal (super-physiological)): small response

Compound: c1ccc([C@@H]2C[C@H]2NC2CCNCC2)cc1 [GSK-LSD1]
- effect on FAP-1 fluorescence ([1]; MCF7, 1 μM inhibitor for 20 h): attenuated FAP-1 fluorescence

Compound: [Zn+2].c1ccc2c(c1)-c1nc-2nc2[n-]c(nc3nc([n-]c4nc(n1)-c1ccccc1-4)-c1ccccc1-3)c1ccccc21 [ZnPc, zinc phthalocyanine]
- ϕstandard (quantum yield) [14]: 0.34
